Legend:
human fecal microflora = assay: In vitro fermentation of fagopyritol-enriched buckwheat extract by human fecal microflora; assay type: in vitro ADME; details: 40° C.; for concentration of inositols and fagopyritols: anaerobic
Experimental: Fermentation tests were done with fagopyritol-enriched Birkett Mills buckwheat extract that had previously been treated with dry granular baking yeast. Yeast cells were removed by centrifugation (10 minutes at 19K rpm using a Sorvall refrigerated centrifuge) and ultrafiltration (Amicon filtration device, 10, 000 MW cut-off). The fagopyritol water extract was boiled under carbon dioxide to sterilize and remove all other gases.
Anaerobic conditions were maintained during the preparation of fecal inoculum and of all samples by working under streams of carbon dioxide gas. Fermentation bottles were sealed with rubber stoppers and metal caps.
Fagopyritol substrate was prepared first. Then, 1 ml was placed in all bottles except blanks (duplicate samples plus one control and one blank done for 0, 6, 12, and 24 hours). Next, the nutritive medium was prepared. Control bottles received 1 ml of the medium in place of inoculum. The remaining medium was used to dilute fresh feces 1:12, w/v, prepared as described in Barry et al., “In Vitro Fermentation of Neutral Monosaccharides by Ruminal and Human Fecal Microflora,” Acta Vet Scand, 86 (supplement): 93-95 (1989) and Guillon et al., “Characterization of Residual Fibers from Fermentation of Pea and Apple Fibres by Human Fecal Bacteria,” J. Sci. Food Agric., 68:521-529 (1995), which are hereby incorporated by reference. All samples and blanks were inoculated with 1 ml of fecal inoculum by syringe through the rubber stoppers.
A 40° C. water bath was used for the fermentation which was stopped at the specified times by opening bottles to air and immediately freezing.
The samples were prepared for GC analysis after thawing by centrifuging (microfuge, 8000 rpm) once and then again in 10,000 MW cut-off microfuge tubes. The salts present in those samples containing nutritive medium were removed by passing each sample through Amberlite mixed-bed resin, because salts interfere with TMS-derivitization. Two control samples of the original extract were also passed through the resin to insure that fagopyritols were not removed by the treatment.
A small volume of each (750 μL) was dried with 100 μg of internal standard (phenyl α-D-glucopyranoside) in silyation vials under a stream of nitrogen gas; vials were then placed in a desiccator over P205 overnight.
Trimethylsilyl derivitives were prepared by adding 100 μL of 1:1 pyridine:TMS solution and heating at 70° C. for 30 minutes.
Finally, derivitized samples were analyzed on the GC (HP 5890 Series II; DB-1 column; 0.25 mm i.d., 15 m length, 0.25 μm film thickness).

[1] = system: bovine liver β-D-galactosidase (EC 3.2.1.23); assay: Enzymatic hydrolysis with β-galactosidase; assay type: biochemical; details: for hydrolysis by β-galactosidase (in words): 0.5 units in 200 μL water at 37° C. for 24 h, products by GC
Experimental: (§1) Acid and Enzymic Hydrolysis. […] Enzyme protein was removed by filtration (10,000 MW cut-off filter), samples were dried, and products assayed by GC analysis of trimethylsilyl derivatives. Raffinose and lactose (100 μg) were hydrolyzed only by α- or β-D-galactosidase respectively, confirming that both enzymes were active.
as §1, with “hydrolyzed” for “hydrolyzed only”

[2] = biological target: T1, green coffee bean α-D-galactosidase (EC 3.2.1.22) (Coffea arabica, UniProt Q42656); assay: Enzymatic hydrolysis with α-galactosidase; assay type: biochemical; details: for hydrolysis by α-galactosidase (in words): 1.25 units desalted enzyme in 200 μL water at 22° C. (Examples 22, 23), products by GC
T1 construct: desalted green coffee bean α-D-galactosidase (EC 3.2.1.22); purchased Boehringer Mannheim Corporation, Indianapolis, Ind; host or cells: green coffee bean
Experimental: Enzymatic Digestion. One ml of green coffee bean α-galactosidase (EC 3.2.1.22) (Boehringer Mannheim Corporation, Indianapolis, Ind.) in 3.2 M ammonium sulfate was dialyzed overnight against 1000 ml of distilled water to remove the ammonium sulfate that interferes with the silylation reaction and causes variable results. […] After 24 h, 0.2 ml of absolute ethanol and 100 μg of internal standard were added. The mixture was heated to 90° C. for 5 min to inactivate the enzyme and centrifuged through a 10,000 Mr cutoff filter. The filtrate was evaporated to dryness in a stream of nitrogen gas, silylated, and analyzed by gas chromatography as above.
as §1
as §1, with “hydrolyzed” for “hydrolyzed only”

[3] = Controls (nutritive medium in place of fecal inoculum), 0 hrs
[4] = Controls (nutritive medium in place of fecal inoculum), 6 hrs
[5] = Controls (nutritive medium in place of fecal inoculum), 12 hrs
[6] = Samples with human fecal inoculum, 0 hrs
[7] = Samples with human fecal inoculum, 6 hrs
[8] = Samples with human fecal inoculum, 12 hrs

T1 sequence (Q42656 16-378): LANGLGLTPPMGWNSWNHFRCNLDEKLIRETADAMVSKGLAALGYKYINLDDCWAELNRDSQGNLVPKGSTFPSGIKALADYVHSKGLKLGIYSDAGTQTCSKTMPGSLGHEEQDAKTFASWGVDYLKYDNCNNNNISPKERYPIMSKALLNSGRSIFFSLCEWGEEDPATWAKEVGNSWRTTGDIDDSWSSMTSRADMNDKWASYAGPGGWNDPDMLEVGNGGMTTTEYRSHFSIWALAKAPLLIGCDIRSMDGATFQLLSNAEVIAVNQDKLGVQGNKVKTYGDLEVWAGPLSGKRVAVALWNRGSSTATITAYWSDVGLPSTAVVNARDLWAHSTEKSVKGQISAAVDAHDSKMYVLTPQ

Molecule | concentration of inositols and fagopyritols (human fecal microflora; [3]) [µg/750 µL] | concentration of inositols and fagopyritols (human fecal microflora; [4]) [µg/750 µL] | concentration of inositols and fagopyritols (human fecal microflora; [5]) [µg/750 µL] | concentration of inositols and fagopyritols (human fecal microflora; [6]) [µg/750 µL] | concentration of inositols and fagopyritols (human fecal microflora; [7]) [µg/750 µL] | concentration of inositols and fagopyritols (human fecal microflora; [8]) [µg/750 µL] | hydrolysis by β-galactosidase (in words) [1] | Enzymic hydrolysis by β-D-galactosidase ([1]; Fagopyritol A and B Series) | hydrolysis by α-galactosidase (in words) [2] | Enzymic hydrolysis by α-D-galactosidase ([2]; Fagopyritol A and B Series) | metabolism by fecal bacteria (in words) (human fecal microflora; fermentation of fagopyritol-enriched extract) | Enzymic hydrolysis by β-D-galactosidase ([1]; Galactinol Series) | Enzymic hydrolysis by α-D-galactosidase ([2]; Galactinol Series)
OCC1O[C@H](OCC2O[C@H](OC3C(O)[C@H](O)C(O)C(O)[C@@H]3O)C(O)C(O)[C@H]2O)C(O)C(O)[C@H]1O (stereo partly drawn) [Fagopyritol B2, O-α-D-galactopyranosyl-(1→6)-O-α-D-galactopyranosyl-(1→2)-D-chiro-inositol] | 83 | 72 | 66 | 65 | 0 | 0 | not by P-D-galactosidase | no | hydrolyzed | yes | – | – | –
OC[C@H]1O[C@H](OC[C@H]2O[C@H](O[C@@H]3[C@@H](O)[C@H](O)[C@@H](O)[C@H](O)[C@@H]3O)[C@H](O)[C@@H](O)[C@H]2O)[C@H](O)[C@@H](O)[C@H]1O [digalactosyl myo-inositol, O-α-D-galactopyranosyl-(1→6)-O-α-D-galactopyranosyl-(1→3)-D-myo-inositol] | – | – | – | – | – | – | not by β-galactosidase | – | completely hydrolyzed | – | – | – | –
O[C@H]1[C@H](O)[C@@H](O)[C@H](O)[C@@H](O)[C@H]1O [myo-inositol] | 45 | 48 | 26 | 20 | 0 | 0 | – | – | – | – | – | – | –
O-α-D-galactopyranosyl-(1→6)-O-α-D-galactopyranosyl-(1→6)-O-α-D-galactopyranosyl-(1→3)-D-chiro-inositol [Fagopyritol A3] | 21 | 20 | 26 | 48 | 0 | 0 | not by P-D-galactosidase | no | hydrolyzed | yes | – | – | –
OC1C(O)C(O)C(O)C(O)C1O [D-chiro-inositol] | 99 | 102 | 58 | 47 | 0 | 0 | – | – | – | – | – | – | –
O-α-D-galactopyranosyl-(1→6)-O-α-D-galactopyranosyl-(1→6)-O-α-D-galactopyranosyl-(1→2)-D-chiro-inositol [Fagopyritol B3] | – | – | – | – | – | – | – | – | completely hydrolyzed | yes | – | – | –
OCC1O[C@H](OC2C(O)[C@H](O)C(O)C(O)[C@@H]2O)C(O)C(O)[C@H]1O (stereo partly drawn) [Fagopyritol B1, O-α-D-galactopyranosyl-(1→2)-D-chiro-inositol] | 667 | 636 | 605 | 591 | 0 | 0 | not by β-D-galactosidase | no | hydrolyzed | yes | – | – | –
OC[C@H]1O[C@@H](O[C@H]2[C@H](O)[C@@H](O)C(O)O[C@@H]2CO)[C@H](O)[C@@H](O)[C@H]1O (stereo partly drawn) [lactose, reference compound] | – | – | – | – | – | – | hydrolyzed | – | – | – | – | – | –
OCC1OC(OCC2OC(OCC3OC(OC4C(O)C(O)C(O)C(O)C4O)C(O)C(O)C3O)C(O)C(O)C2O)C(O)C(O)C1O [TGMI, O-α-D-galactopyranosyl-(1→6)-O-α-D-galactopyranosyl-(1→6)-O-α-D-galactopyranosyl-(1→3)-D-myo-inositol] | – | – | – | – | – | – | – | – | completely hydrolyzed | – | – | – | –
OC[C@H]1O[C@H](O[C@H]2O[C@H](CO)[C@@H](O)[C@H](O)[C@H]2O)[C@H](O)[C@@H](O)[C@@H]1O [trehalose, O-α-D-glucopyranosyl-(1-1′)-O-α-D-glucoside] | – | – | – | – | – | – | – | – | – | – | metabolized | – | –
OC[C@H]1O[C@H](OC[C@H]2O[C@H](O[C@]3(CO)O[C@H](CO)[C@@H](O)[C@@H]3O)[C@H](O)[C@@H](O)[C@@H]2O)[C@H](O)[C@@H](O)[C@H]1O [Raffinose, O-α-D-galactopyranosyl-(1→6)-α-D-glucopyranosyl-(1→2)-β-D-fructofuranoside, reference compound] | – | – | – | – | – | – | – | – | hydrolyzed | – | – | – | –
OC[C@H]1O[C@H](OC2[C@@H](O)[C@H](O)C(O)[C@H](O)[C@@H]2O)[C@H](O)[C@@H](O)[C@H]1O (stereo partly drawn) [Galactinol (gt1)] | – | – | – | – | – | – | – | – | – | – | – | no | yes
OCC1O[C@@H](O[C@H]2C(O)C(O)[C@H](O)C(O)C2O)C(O)C(O)[C@H]1O (stereo partly drawn) [Fagopyritol A1, O-α-D-galactopyranosyl-(1→3)-D-chiro-inositol] | 88 | 87 | 94 | 106 | 0 | 0 | not by β-D-galactosidase | no | hydrolyzed | yes | – | – | –
OCC1O[C@H](OCC2O[C@@H](O[C@H]3C(O)C(O)[C@H](O)C(O)C3O)C(O)C(O)[C@H]2O)C(O)C(O)[C@H]1O (stereo partly drawn) [Fagopyritol A2, O-α-D-galactopyranosyl-(1→6)-O-α-D-galactopyranosyl-(1→3)-D-chiro-inositol] | 56 | 54 | 59 | 54 | 0 | 0 | not by P-D-galactosidase | no | hydrolyzed | yes | – | – | –

Reference: US6825173B2, “Preparation of fagopyritols and uses therefor” (Cornell Research Foundation, Inc., priority 1997, dated 2004)
